Experimental data as given in patent US20260001871A1, “TRIAZOLE DERIVATIVES AS MODULATORS OF MAS-RELATED G-PROTEIN RECEPTOR D” (ESCIENT PHARMACEUTICALS, INC., priority 2022, published 2026).

Target: human MRGPRD (Homo sapiens, UniProt Q8TDS7)
Test: MRGPRD antagonist activity, IP-One HTRF assay in CHO cells stably expressing human MRGPRD (versus 100 μM β-Alanine agonist)
Assay type: cell-based
Procedure, shortened: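 IP-1 HTRF read-out, with IC50 from HTRF ratio curves and percent antagonism relative to maximal efficacy (mean, SEM). Antagonists and agonist were co-incubated 1 h at 37 °C plus 1 h at room temperature on overnight-plated MRGPRD-CHO cells in LiCl-containing Tris buffer, pH 8.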

Sequence of human MRGPRD (Q8TDS7 whole entry): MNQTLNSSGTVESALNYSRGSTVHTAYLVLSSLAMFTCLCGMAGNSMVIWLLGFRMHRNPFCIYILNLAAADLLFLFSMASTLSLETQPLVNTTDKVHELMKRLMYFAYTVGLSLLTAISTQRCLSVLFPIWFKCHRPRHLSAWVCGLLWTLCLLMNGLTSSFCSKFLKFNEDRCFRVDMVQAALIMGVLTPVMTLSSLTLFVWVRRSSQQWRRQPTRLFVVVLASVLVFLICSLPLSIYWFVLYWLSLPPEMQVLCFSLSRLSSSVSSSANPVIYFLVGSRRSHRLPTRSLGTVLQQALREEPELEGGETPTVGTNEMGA

Row | IC50 [nM] | SMILES
1 | 1000 to 3000 | O=C(Nc1ccncc1)c1nnn(-c2cccc(-c3cn[nH]c3)c2)c1C1CC1 [Compound 7-310]
2 | 1000 to 3000 | O=C(Nc1ccncc1)c1nnn(-c2cccc(-c3ccc(-c4ccccc4)cc3)c2)c1C1CC1 [Compound 7-312]
3 | 1000 to 3000 | COc1ccc(-c2cccc(-n3nnc(C(=O)Nc4ccncc4)c3C3CC3)c2)cc1OC [Compound 7-313]
4 | 1000 to 3000 | Cc1cc(-n2nnc(C(=O)Nc3ccncc3)c2C2CC2)ccc1-c1c(C)nn(C)c1C [Compound 7-315]
5 | 1000 to 3000 | Cc1nn(C)cc1-c1cccc(-n2nnc(C(=O)Nc3ccncc3)c2C2CC2)c1 [Compound 7-316]
6 | 1000 to 3000 | Cc1cc(-n2nnc(C(=O)Nc3ccncc3)c2C2CC2)ccc1-c1ccc(C#N)cc1 [Compound 7-319]
7 | 1000 to 3000 | COc1ccccc1-c1cccc(-n2nnc(C(=O)Nc3ccncc3)c2C2CC2)c1 [Compound 7-320]
8 | 1000 to 3000 | CCc1cccc(-c2cccc(-n3nnc(C(=O)Nc4ccncc4)c3C3CC3)c2)c1 [Compound 7-323]
9 | 1000 to 3000 | Cc1nn(C)c(C)c1-c1cccc(-n2nnc(C(=O)Nc3ccncc3)c2C2CC2)c1 [Compound 7-325]
10 | > 3000 | O=C(Nc1ccncc1)c1nnn(-c2cccc(-c3cnn(C(F)F)c3)c2)c1C1CC1 [Compound 7-329]
11 | > 3000 | N#CCc1ccc(-c2cccc(-n3nnc(C(=O)NC4(c5cccnc5)CC4)c3C3CC3)c2)c(F)c1 [Compound 7-330]
12 | > 3000 | Cc1ccc(CNC(=O)c2nnn(-c3cccc(-c4ccn(C)n4)c3)c2C2CC2)cn1 [Compound 7-332]
13 | > 3000 | N#Cc1ccccc1-c1cccc(-n2nnc(C(=O)Nc3ccncc3)c2C2CC2)c1 [Compound 7-334]
14 | > 3000 | Cc1nn(C)c(C)c1-c1ccc(-n2nnc(C(=O)Nc3ccncc3)c2C2CC2)cc1OC(F)(F)F [Compound 7-335]
15 | < 100 | Cc1cc(NC(=O)c2nnn(-c3ccc(-c4c(C)nn(C5CCC5)c4C)cc3)c2C2CC2)ccn1 [Compound 8-2, 1-(4-(1-cyclobutyl-3,5-dimethyl-1H-pyrazol-4-yl)phenyl)-5-cyclopropyl-N-(2-methylpyridin-4-yl)-1H-1,2,3-triazole-4-carboxamide]
16 | 100 to 500 | Cc1ccc(CNC(=O)c2nnn(-c3ccc(-c4c(C)nn(C)c4F)cc3)c2C2CC2)cn1 [Compound 8-3]
17 | 1000 to 3000 | Cc1ccc(CNC(=O)c2nnn(-c3ccc(-c4cnn5c4CCC5)cc3)c2C2CC2)cn1 [Compound 8-4]
18 | < 100 | CCc1cc(NC(=O)c2nnn(-c3ccc(-c4c(C)nn(C)c4C)cc3)c2C2CC2)ccn1 [Compound 9-2]
19 | < 100 | CCn1nc(C)c(-c2ccc(-n3nnc(C(=O)NCc4cccnc4C)c3C3CC3)cc2)c1C [Compound 9-5]
20 | < 100 | Cc1ccc(C2(NC(=O)c3nnn(-c4ccc(-c5c(C)nn(-c6ccccc6)c5C)cc4)c3C3CC3)CC2)cn1 [Compound 9-6]

Row | IC50 [nM] | SMILES
21 | 100 to 500 | Cc1ccc(C2(NC(=O)c3nnn(-c4ccc(-c5ccc(C#N)c(F)c5)cc4)c3C3CC3)CC2)cn1 [Compound 9-7]
22 | 100 to 500 | Cc1nn(-c2ccccc2)c(C)c1-c1ccc(-n2nnc(C(=O)NC3(c4cncc(Cl)c4)CC3)c2C2CC2)cc1 [Compound 9-8]
23 | 100 to 500 | Cc1nn(C)c(C)c1-c1ccc(-n2nnc(C(=O)NCc3ccc(C(C)C)nc3)c2C2CC2)cc1 [Compound 9-9]
24 | 100 to 500 | CCn1nc(C)c(-c2ccc(-n3nnc(C(=O)NCc4ccc(C)nc4)c3C3CC3)cc2)c1C [Compound 9-10]
25 | 100 to 500 | CCn1cc(CNC(=O)c2nnn(-c3ccc(-c4c(C)nn(CC)c4C)cc3)c2C2CC2)cn1 [Compound 9-11]
26 | 100 to 500 | Cc1cncc(CNC(=O)c2nnn(-c3ccc(-c4c(C)nn(-c5ccccc5)c4C)cc3)c2C2CC2)c1 [Compound 9-12]
27 | 100 to 500 | CCc1ccc(C2(NC(=O)c3nnn(-c4ccc(-c5ccc(C#N)c(F)c5)cc4)c3C3CC3)CC2)cn1 [Compound 9-13]
28 | 100 to 500 | Cc1nn(-c2ccccc2)c(C)c1-c1ccc(-n2nnc(C(=O)NCc3cccnc3)c2C2CC2)cc1 [Compound 9-14]
29 | 100 to 500 | CCc1cc(NC(=O)c2nnn(-c3ccc(-c4c(C)nn(CC)c4C)cc3)c2C2CC2)ccn1 [Compound 9-16]
30 | 100 to 500 | CCc1ccc(C2(NC(=O)c3nnn(-c4ccc(-c5ccc(C#N)cc5C)cc4)c3C3CC3)CC2)cn1 [Compound 9-17]
31 | 100 to 500 | CCn1nc(C)c(-c2ccc(-n3nnc(C(=O)NCc4ccc(C(C)C)nc4)c3C3CC3)cc2)c1C [Compound 9-21]
32 | 100 to 500 | Cc1ccc(C2(NC(=O)c3nnn(-c4ccc(-c5ccc(C#N)cc5C)cc4)c3C3CC3)CC2)cn1 [Compound 9-22]
33 | 100 to 500 | CCn1nc(C)c(-c2ccc(-n3nnc(C(=O)NCc4cnccc4C)c3C3CC3)cc2)c1C [Compound 9-23]
34 | 100 to 500 | CCn1nc(C)c(-c2ccc(-n3nnc(C(=O)NCc4cccnc4)c3C3CC3)cc2)c1C [Compound 9-25]
35 | 500 to 1000 | Cc1nn(-c2ccccc2)c(C)c1-c1ccc(-n2nnc(C(=O)Nc3ccc(NS(C)(=O)=O)cc3)c2C2CC2)cc1 [Compound 9-27]
36 | 1000 to 3000 | CCc1ccc(C2(NC(=O)c3nnn(-c4ccc(-c5c(C)nn(C)c5C)cc4)c3C3CC3)CC2)cn1 [Compound 9-33]
37 | 1000 to 3000 | Cc1nn(C)c(C)c1-c1ccc(-n2nnc(C(=O)Nc3ccc(NS(C)(=O)=O)cc3)c2C2CC2)cc1 [Compound 9-34]
38 | 100 to 500 | N#Cc1ccc(-c2ccc(-n3nnc(C(=O)Nc4ccnc(F)c4)c3C3CC3)cc2)cc1F [Compound 9-36]
39 | 500 to 1000 | N#Cc1ccc(-c2ccc(-n3nnc(C(=O)Nc4cc(F)nc(F)c4)c3C3CC3)cc2)cc1F [Compound 9-37]
40 | < 100 | Cc1cc(NC(=O)c2nnn(-c3ccc(-c4c(C)nn(-c5ccccc5)c4C)cc3)c2C2CC2)ccn1 [Compound 10-1, 5-cyclopropyl-1-(4-(3,5-dimethyl-1-phenyl-1H-pyrazol-4-yl)phenyl)-N-(2-methylpyridin-4-yl)-1H-1,2,3-triazole-4-carboxamide]

The remaining lines, values behind:

Row | SMILES | IC50 [nM]
41 | O=C(Nc1ccncc1)c1nnn(-c2cccc(-c3ccc(F)cc3)c2)c1C1CC1 [Compound 7-311] | 1000 to 3000
42 | O=C(Nc1ccncc1)c1nnn(-c2cccc(-c3cnn(C4CC4)c3)c2)c1C1CC1 [Compound 7-314] | 1000 to 3000
43 | CCc1ccc(-n2nnc(C(=O)Nc3ccncc3)c2C2CC2)cc1-c1cccc(C(C)=O)c1 [Compound 7-317] | 1000 to 3000
44 | Cc1ccc(-c2cccc(-n3nnc(C(=O)Nc4ccncc4)c3C3CC3)c2)cc1 [Compound 7-318] | 1000 to 3000
45 | Cc1cccc(-c2cccc(-n3nnc(C(=O)Nc4ccncc4)c3C3CC3)c2)c1 [Compound 7-321] | 1000 to 3000
46 | Cc1ccccc1-c1cccc(-n2nnc(C(=O)Nc3ccncc3)c2C2CC2)c1 [Compound 7-322] | 1000 to 3000
47 | O=C(Nc1ccncc1)c1nnn(-c2cccc(-c3cccc(Cl)c3)c2)c1C1CC1 [Compound 7-324] | 1000 to 3000
48 | Cn1cc(-c2cccc(-n3nnc(C(=O)Nc4ccncc4)c3C3CC3)c2)cn1 [Compound 7-326] | 1000 to 3000
49 | O=C(Nc1ccncc1)c1nnn(-c2ccc(-c3ccccc3-c3ccccc3)cc2)c1C1CC1 [Compound 7-327] | 1000 to 3000
50 | O=C(Nc1ccncc1)c1nnn(-c2cccc(-c3cccc(-c4ccccc4)c3)c2)c1C1CC1 [Compound 7-328] | > 3000
51 | Cc1nn(C)c(C)c1-c1ccc(-n2nnc(C(=O)Nc3ccncc3)c2C2CC2)cc1C(F)(F)F [Compound 7-331] | > 3000
52 | Cc1ccc(CNC(=O)c2nnn(-c3cccc(-c4cnn(C5CC5)c4)c3)c2C2CC2)cn1 [Compound 7-333] | > 3000
53 | Cc1cc(NC(=O)c2nnn(-c3ccc(-c4c(C)nn5ccccc45)cc3)c2C2CC2)ccn1 [Compound 8-1] | < 100
54 | CCn1nc(C)c(-c2ccc(-n3nnc(C(=O)Nc4ccnc(C)c4)c3C3CC3)cc2)c1C [Compound 9-1, 5-cyclopropyl-1-(4-(1-ethyl-3,5-dimethyl-1H-pyrazol-4-yl)phenyl)-N-(2-methylpyridin-4-yl)-1H-1,2,3-triazole-4-carboxamide] | < 100
55 | CCc1cc(NC(=O)c2nnn(-c3ccc(-c4c(C)nn(-c5ccccc5)c4C)cc3)c2C2CC2)ccn1 [Compound 9-3] | < 100
56 | Cc1ncccc1CNC(=O)c1nnn(-c2ccc(-c3c(C)nn(-c4ccccc4)c3C)cc2)c1C1CC1 [Compound 9-4] | < 100
57 | Cc1nn(-c2ccccc2)c(C)c1-c1ccc(-n2nnc(C(=O)NCc3ccc(C(C)C)nc3)c2C2CC2)cc1 [Compound 9-15] | 100 to 500
58 | CCn1nc(C)c(-c2ccc(-n3nnc(C(=O)NCc4cnn(C)c4)c3C3CC3)cc2)c1C [Compound 9-18] | 100 to 500
59 | CCn1nc(C)c(-c2ccc(-n3nnc(C(=O)NCc4cncc(C)c4)c3C3CC3)cc2)c1C [Compound 9-19] | 100 to 500
60 | CCc1ccc(C2(NC(=O)c3nnn(-c4ccc(-c5c(C)nn(-c6ccccc6)c5C)cc4)c3C3CC3)CC2)cn1 [Compound 9-20] | 100 to 500
61 | COc1ccc(C2(NC(=O)c3nnn(-c4ccc(-c5ccc(C#N)cc5C)cc4)c3C3CC3)CC2)cn1 [Compound 9-24] | 100 to 500
62 | Cc1ccncc1CNC(=O)c1nnn(-c2ccc(-c3c(C)nn(-c4ccccc4)c3C)cc2)c1C1CC1 [Compound 9-26] | 500 to 1000
63 | CCn1nc(C)c(-c2ccc(-n3nnc(C(=O)Nc4ccc(NS(C)(=O)=O)cc4)c3C3CC3)cc2)c1C [Compound 9-28] | 500 to 1000
64 | Cc1nn(-c2ccccc2)c(C)c1-c1ccc(-n2nnc(C(=O)N3Cc4cnn(C)c4C3)c2C2CC2)cc1 [Compound 9-29] | 500 to 1000
65 | Cc1ccc(NC(=O)c2nnn(-c3ccc(-c4ccc(C#N)cc4C)cc3)c2C2CC2)cn1 [Compound 9-30] | 1000 to 3000
66 | CCc1ccc(C2(NC(=O)c3nnn(-c4ccc(-c5c(C)nn(CC)c5C)cc4)c3C3CC3)CC2)cn1 [Compound 9-31] | 1000 to 3000
67 | CCn1nc(C)c(-c2ccc(-n3nnc(C(=O)N4Cc5cnn(C)c5C4)c3C3CC3)cc2)c1C [Compound 9-32] | 1000 to 3000
68 | COc1ccc(C2(NC(=O)c3nnn(-c4ccc(-c5ccc(C#N)c(F)c5)cc4)c3C3CC3)CC2)cn1 [Compound 9-35] | 100 to 500
